“And” between values parts separate entries of the source, which are not always exact repeats. Equal values may be shown once. “Also recorded” adds a separate entry of the source.
How the values were obtained:
[1] = molecular target: T1, P2X7R (Homo sapiens, UniProt Q99572); test: In vitro autoradiography on post mortem human brain tissue (AD patients and controls); assay type: binding; settings: tracer 28 nM
T1 construct: Snap frozen human post-mortem; tissue The Netherlands Brain Bank; host or cells: post mortem human temporal cortex (AD patients and non-neurological controls)
T1 sequence (Q99572 1-595): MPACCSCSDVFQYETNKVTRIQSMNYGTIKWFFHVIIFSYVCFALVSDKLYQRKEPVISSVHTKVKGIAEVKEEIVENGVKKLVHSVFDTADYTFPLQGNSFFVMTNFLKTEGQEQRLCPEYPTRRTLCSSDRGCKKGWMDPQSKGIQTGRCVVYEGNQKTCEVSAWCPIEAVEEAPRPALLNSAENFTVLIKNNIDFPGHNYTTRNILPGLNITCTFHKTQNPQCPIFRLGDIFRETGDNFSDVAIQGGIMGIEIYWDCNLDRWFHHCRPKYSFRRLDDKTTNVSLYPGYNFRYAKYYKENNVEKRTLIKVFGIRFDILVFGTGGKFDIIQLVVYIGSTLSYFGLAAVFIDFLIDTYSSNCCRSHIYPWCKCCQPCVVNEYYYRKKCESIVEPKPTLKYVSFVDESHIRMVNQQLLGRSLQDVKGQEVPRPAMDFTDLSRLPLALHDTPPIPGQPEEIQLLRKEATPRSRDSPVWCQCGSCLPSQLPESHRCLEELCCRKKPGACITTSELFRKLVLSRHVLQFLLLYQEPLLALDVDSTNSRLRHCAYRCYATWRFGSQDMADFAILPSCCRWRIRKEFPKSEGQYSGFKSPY

[2] = test system: mouse P2X7R; design: method as in PMID 28841278; settings: cited from earlier work
[3] = molecular target: T2, hP2X7R (Homo sapiens, UniProt Q99572); test: PET imaging in rats locally overexpressing hP2X7R in right striatum; assay type: in vivo, rat; settings: PET
T2 construct: 3xFLAG (3flag); expressed in transfected cells; host or cells: rat striatum (female Wistar rats), transduced in vivo with the AAV vector rAAV_3flag-hP2X7R
T2 sequence (Q99572 1-595): T1 sequence (Q99572 1-595)
Protocol: Uptake of [^11C]SMW139 was 1.5-fold higher in the right striatum compared with the contralateral striatum at 4–15 min p.i. (n = 3; Fig. 6A,B, and Supplementary Figure S5, 5 weeks after vector injection). […] (2.85 ± 0.69 vs. 2.30 ± 0.36 in contralateral striatum) throughout the remainder of the scanning time.
Female rats were injected with the hP2X7R expressing vector in the right striatum, and eGFP expressing vector in the left striatum, which is described in detail in the Supplementary Information. […] To confirm stable expression of hP2X7R during the time period in which PET scanning studies were conducted, autoradiography experiments were performed both prior to and following PET experiments. In a dedicated small animal PET scanner (nanoPET, Mediso Ltd.), 60 min dynamic PET scans were acquired immediately after intravenous administration of 16–20 MBq of [^11C]SMW139. […] 45 min prior to tracer injection. After data reconstruction (details in Supplementary Information), images were analysed using the freely available AMIDE software (version 0.9.2; http://amide.sourceforge.net). ROIs were drawn around ipsi- and contralateral striata. Results are expressed as standardised uptake values (SUVs) and error bars indicate standard deviation.
Stereotactic injection of viral vector […]
to a 10 µL Hamilton syringe. […]
dorsoventral -0.64 cm relative to bregma. […]
minutes before removing it slowly.
Rats were sacrificed for in
Dynamic PET imaging was performed using dedicated small animal NanoPET/CT and NanoPET/MR scanners (Mediso Ltd., Budapest, Hungary) which are equipped with identical PET components. […]
anaesthetised with 4% and 2% isoflurane in oxygen (1 L·min-1) for induction and maintenance, respectively. Rats were positioned on the scanner bed and their respiratory rate was monitored during the entire scan, and anaesthesia was adjusted whenever required. Dynamic PET scans were acquired immediately after intravenous (i.v.) administration of 16-20 MBq of [11C]SMW139 via the tail vein. For […]
hydroxypropyl)-β-cyclodextrin in water for injection 45 min prior to tracer injection. PET scans were acquired in list mode and rebinned into the following frame sequence: 4 × 5, 4 x 10, 2 x 30, 3x 60, 2 x 300, 1 x 600, 1 x 900 and 1 x 1200 s. Reconstruction was performed using a fully 3-dimensional reconstruction algorithm (Tera-TomoTM, Mediso Ltd.) with 4 iterations and 6 subsets, and an isotropic 0.4 mm voxel dimension. Images were analysed using the freely available AMIDE software (version 0.9.2; http://amide.sourceforge.net). 3D ellipsoid ROIs (dimensions x = 3.4 mm, y = 3.6 mm, z = 2.9 […]
mm) were drawn within ipsi- and contralateral striata. Results are expressed as standardised uptake values (SUVs) and error bars indicate standard deviation. SUV were calculated as follows, with cimg in MBq/mL, injected dose in MBq and bodyweight in kg:
An unpaired two-tailed t-test was used for statistical analysis of PET data, which was performed using […]
allowed to recover for 1 week after scanning. After 1 week of recovery following the final scan (12 weeks after stereotactic vector injection) animals were sacrificed, and brains were excised and stored […]
Extended single microdose toxicity study
A single microdose toxicity study according to EMEA guideline EMA/CPMP/ICH/286/1995 (December 2009) was performed in healthy Wistar rats at a 1000 times higher dose than the maximal dose […]
minimum specific activity of 18.5 GBq·µmol-1). Animals were allowed to acclimatise for 10 days, group-housed and in an enriched environment with food and water available ad libitum, and with a 12-hour light-dark cycle in a temperature controlled room.

[4] = molecular target: T3, human P2X7 receptor (hP2X7R) (Homo sapiens, UniProt Q99572); test: In vitro autoradiography on rat brain cryosections locally overexpressing hP2X7R; settings: tracer 28 nM
T3 sequence (Q99572 1-595): T1 sequence (Q99572 1-595)
Protocol: Snap frozen brain tissue was cut on a cryostat into 20 μm sections.
Female Wistar rats (n=7) were anaesthetised by intraperitoneal (i.p.)
injection of ketamine (75 mg·kg-1); Ketalar, Pfizer, Brussels, Belgium) and medetomidin (1 mg·kg-1;
Domitor, Pfizer) and positioned in a stereotactic head frame (Stoelting, Wood Dale, IL, USA). Right and
left striatum were injected with 4 µL of the hP2X7R vector (rAAV_3flag-hP2X7R) and of the control
vector (rAAV_3flag-eGFP), respectively, at a rate of 0.25 µL·min-1, using a 30-gauge needle connected
to a 10 µL Hamilton syringe. Coordinates used for striatal injection of the hP2X7R vector were:
anteroposterior 0 cm, lateral -0.28 cm and dorsoventral -0.64 cm relative to bregma. Coordinates
used for striatal injection of the eGFP vector were: anteroposterior 0 cm, lateral +0.28 cm and
dorsoventral -0.64 cm relative to bregma. After injection, the needle was kept in place for another 5
minutes before removing it slowly. To reverse the anaesthesia, the rats were injected intraperitoneally
with 0.5 mg·kg-1 atipamezol (Antisedan, Orion Pharma, Newburry, Berkshire, UK).
vitro autoradiography at 3 (n=2) and 12 (n=5) weeks after vector injection.
Snap frozen brains of female Wistar rats (rAAV_3flag-hP2X7R in right striatum; rAAV_3flag-eGFP in left
striatum; sacrificed 3 weeks (n = 2) or 12 weeks (n = 5) after vector injection) were cut on a Leica
CM3050 S cryostat (Leica Biosystems, Nussloch, Germany) at -19 °C in transversal sections of 20 µm,
thaw-mounted on SuperFrostTM Plus (Thermo Fisher Scientific, Waltham, MA, USA) object glasses,
dried overnight on silica at 4 °C and then stored at -20 °C until use.
Upon use, sections were thawed to room temperature for an hour
before washing the sections in 5 mM Tris-HCl buffer (pH 7.4) at room temperature (3x 5 min). Sections
were dried in a cold stream of air before incubation (30 min) with 5 mM Tris-HCl buffer (pH 7.4)
concentration. After incubation, sections were washed (3x 1.5 min) in ice-cold 5 mM Tris-HCl buffer
(pH 7.4) followed by a dip in ice-cold demineralised water. Sections were dried in a stream of air and
then exposed to a storage phosphor screen (BAS-IP SR 2040 E, GE Healthcare Europe GmbH,
Eindhoven, the Netherlands) and the screen was read out on a Typhoon FLA 7000 phosphor imager
(GE Healthcare Europe GmbH, Eindhoven, the Netherlands).
quantified using ImageQuantTL Analysis Toolbox (version 8.1, GE Healthcare). In case of the rat brain
sections, regions of interest (ROIs) were defined around the striatum. […] Results are expressed as mean intensity, or as
percentage of tracer binding, relative to total tracer binding in the contralateral striatum. Experiments
with rAAV_3flag-hP2X7R injected rat brains were performed as a duplicate of quadruplicates.
Statistical analysis of quantitative autoradiography data (unpaired t test, two-tailed) was performed

[11CH3]Oc1ccc(Cl)c(C(=O)NCC23CC4(F)CC(F)(CC(F)(C4)C2)C3)c1 [[^11C]SMW139]
Tracer binding in white matter vs grey matter ([1]; AD patients and controls): Higher tracer binding was observed in white matter compared with grey matter; also recorded: higher in white matter than in grey matter
Tracer binding in AD patients vs non-neurological controls ([1]; temporal cortex, grey and white matter): does not differ significantly; also recorded: did not differ significantly; also recorded: no significant differences
Affinity lower for mouse P2X7R compared with hP2X7R [2]: 6 fold
Time of peak of ipsi- to contralateral striatum ratio after tracer injection [3]: ≤ 15 min
Uptake in right (hP2X7R) striatum compared with contralateral striatum ([3]; 4–15 min p.i., n = 3, 5 weeks after vector injection): 1.5 fold
Uptake in rAAV_3flag-hP2X7R striatum after pre-treatment with JNJ-47965567 ([3]; 2 min p.i., JNJ-47965567 30 mg·kg^−1 s.c. 45 min prior to tracer, n = 3, 11 weeks after vector injection): 2.40 ± 0.22 SUV
Uptake in contralateral striatum ([3]; 2 min p.i., baseline): 2.30 ± 0.36 SUV
Uptake in rAAV_3flag-hP2X7R striatum ([3]; 2 min p.i., baseline): 2.85 ± 0.69 SUV
Mean intensity of tracer binding in rAAV_3flag-eGFP injected striatum [4]: 69 ± 10 counts
Mean intensity of tracer binding in rAAV_3flag-hP2X7R injected striatum [4]: 678 ± 55 counts
Increased binding in rAAV_3flag-hP2X7R injected striatum vs rAAV_3flag-eGFP injected striatum ([4]; n = 2): 10 ± 2 fold and 10 fold
